Measurements published in ChEMBL document CHEMBL5532643, “Design and synthesis of etrasimod derivatives as potent antibacterial agents against Gram-positive bacteria” (Eur J Med Chem, 2024).
In brackets after ≈: the same amount, converted by molar mass. Several values for one entry are separate records, joined by “and”; a condition that tells them apart may be missing. Equal values may be shown once. Activity calls are given as the source filed them. The calls are words filed in the database; no cut-off is given here.

Tests used:
Enterococcus faecalis [1] = assay: Antibacterial activity against vancomycin-resistant Enterococcus faecalis ATCC 51575 assessed as reduction in bacterial growth incubated for 18 to 20 hrs by broth microdilution assay; type: functional; conditions: time 18-20 hrs
Staphylococcus aureus [2] = assay: Antimicrobial activity against methicillin-resistant Staphylococcus aureus ATCC 43300 infected in Caenorhabditis elegans AU37 assessed as reduction in bacterial burden at 20 uM incubated for 18 hrs; type: functional; set-up: scale not given: the % may be the effect or the level left
Staphylococcus aureus [3] = assay: Antibacterial activity against Staphylococcus aureus ATCC 25923 assessed as reduction in bacterial growth incubated for 18 to 20 hrs by broth microdilution assay; type: functional; conditions: time 18-20 hrs
[4] = system: Staphylococcus epidermidis; assay: Antibacterial activity against […] Staphylococcus epidermidis RP62A assessed as reduction in bacterial growth incubated for 18 to 20 hrs by broth microdilution assay; type: functional; conditions: time 18-20 hrs
Enterococcus faecalis [5] = assay: Antibacterial activity against Enterococcus faecalis ATCC 29212 assessed as reduction in bacterial growth incubated for 18 to 20 hrs by broth microdilution assay; type: functional; conditions: time 18-20 hrs
Staphylococcus aureus [6] = assay: Antibacterial activity against Staphylococcus aureus ATCC 43300 assessed as reduction in bacterial growth incubated for 18 to 20 hrs by broth microdilution assay; type: functional; conditions: time 18-20 hrs
Enterococcus faecium = assay: Antibacterial activity against vancomycin-resistant Enterococcus faecium ATCC 700221 assessed as reduction in bacterial growth incubated for 18 to 20 hrs by broth microdilution assay; type: functional; conditions: time 18-20 hrs
[7] = system: Staphylococcus epidermidis; assay: Antibacterial activity against Staphylococcus epidermidis RP62A assessed as reduction in bacterial growth incubated for 18 to 20 hrs by broth microdilution assay; type: functional; conditions: time 18-20 hrs
Cell membrane [8] = assay: Induction of cell membrane permeability in Staphylococcus aureus ATCC 25923 assessed as increase in fluorescence intensity at 4 times MIC incubated for 30 mins by PI staining based analysis; type: cell membranes
Staphylococcus aureus [9] = assay: Antibiofilm activity against Staphylococcus aureus ATCC 25923 assessed as inhibition of biofilm biomass at 100 uM incubated for 18 to 20 hrs by crystal violet staining based assay; type: functional; conditions: time 18-20 hrs
Staphylococcus aureus [10] = assay: Antibiofilm activity against Staphylococcus aureus ATCC 25923 assessed as inhibition of biofilm viability at 100 uM incubated for 18 to 20 hrs by resazurin staining based assay; type: functional; conditions: time 18-20 hrs
Staphylococcus aureus [11] = assay: Antibacterial activity against […] Staphylococcus aureus ATCC 43300 assessed as reduction in bacterial growth incubated for 18 to 20 hrs by broth microdilution assay; type: functional; conditions: time 18-20 hrs
Staphylococcus aureus [12] = assay: Antimicrobial activity against Staphylococcus aureus ATCC 25923 infected in Caenorhabditis elegans AU37 assessed as reduction in bacterial burden at 20 uM incubated for 18 hrs; type: functional; set-up: scale not given: the % may be the effect or the level left
Staphylococcus aureus [13] = assay: Drug resistance, ratio of MIC for Staphylococcus aureus ATCC 25923 after 20 days exposure to MIC for Staphylococcus aureus ATCC 25923 during first exposure; type: functional; conditions: time 20 day
Staphylococcus aureus [14] = assay: Drug resistance, ratio of MIC for methicillin-resistant Staphylococcus aureus after 20 days exposure to MIC for methicillin-resistant Staphylococcus aureus during first exposure; type: functional; conditions: time 20 day
Staphylococcus aureus [15] = assay: Antibiofilm activity against Staphylococcus aureus ATCC 25923 assessed as reduction in biofilm biomass at 100 uM incubated for 18 to 20 hrs by crystal violet staining based assay; type: functional; set-up: scale not given: the % may be the effect or the level left; conditions: time 18-20 hrs
Staphylococcus aureus [16] = assay: Antibacterial activity against Staphylococcus aureus ATCC 25923 assessed as inhibition of bacterial growth at 40 uM incubated for 18 to 24 hrs by broth microdilution assay relative to control; type: functional; conditions: time 18-24 hrs
Cell membrane [17] = assay: Induction of cell membrane permeability in Staphylococcus aureus ATCC 25923 assessed as increase in fluorescence intensity incubated for 30 mins by PI staining based analysis; type: cell membranes
Pseudomonas aeruginosa = assay: Antibacterial activity against Pseudomonas aeruginosa ATCC 15442 assessed as reduction in bacterial growth incubated for 18 to 20 hrs by broth microdilution assay; type: functional; conditions: time 18-20 hrs
Acinetobacter baumannii = assay: Antibacterial activity against Acinetobacter baumannii NCTC 13423 assessed as reduction in bacterial growth incubated for 18 to 20 hrs by broth microdilution assay; type: functional; conditions: time 18-20 hrs
[18] = Dissociation constant, pKa of compound; type: physicochemical
Erythrocyte = assay: Hemolytic activity in mouse RBC assessed as hemolysis at 62.5 uM incubated for 1 hr; type: toxicity, cell-based
[19] = Hemolytic activity in mouse RBC assessed as hemolysis at 250 uM incubated for 1 hr; type: toxicity, cell-based, Erythrocyte; conditions: mouse red blood cells (erythrocytes), read-out: Activity
THP-1 = assay: Cytotoxicity against human THP-1 cells assessed as reduction in cell viability at 50 uM incubated for 24 hrs by resazurin staining based analysis relative to control; type: toxicity; conditions: thp-1, 24 h
[20] = Cytotoxicity against human THP-1 cells assessed as reduction in cell viability incubated for 24 hrs by resazurin staining based analysis; type: toxicity
[21] = Toxicity in Caenorhabditis elegans AU37 assessed as worms survival at 10 uM measured after 72 hrs
[22] = Hemolytic activity in mouse RBC assessed as hemolysis at 125 uM incubated for 1 hr; type: toxicity, cell-based, Erythrocyte; conditions: mouse red blood cells (erythrocytes), read-out: Activity
Cell membrane [23] = assay: Induction of cytoplasmic membrane depolarization in Staphylococcus aureus ATCC 25923 assessed as increase in fluorescence intensity at 4 times MIC measured for 30 mins by DiSC3(5) dye based fluorescence method; type: cell membranes

Structure (SMILES): CN[C@H](CC(C)C)C(=O)N[C@H]1C(=O)N[C@@H](CC(N)=O)C(=O)N[C@H]2C(=O)N[C@H]3C(=O)N[C@H](C(=O)N[C@H](C(=O)O)c4cc(O)cc(O)c4-c4cc3ccc4O)[C@H](O)c3ccc(c(Cl)c3)Oc3cc2cc(c3O[C@@H]2O[C@H](CO)[C@@H](O)[C@H](O)[C@H]2O[C@H]2C[C@](C)(N)[C@H](O)[C@H](C)O2)Oc2ccc(cc2Cl)[C@H]1O [VANCOMYCIN]
- MIC (Enterococcus faecalis [1]): 40 µM (≈ 58 µg/mL)
- Activity (Staphylococcus aureus [2]): 61%
- MIC (Staphylococcus aureus [3]): 2.5 µM and 3.6 µg/mL
- MIC [4]: 2.5 µM (≈ 3.62 µg/mL)
- MIC (Enterococcus faecalis [5]): 2.5 µM (≈ 3.62 µg/mL)
- MIC (Staphylococcus aureus [6]): 1.25 µM (≈ 1.81 µg/mL)
- MIC (Enterococcus faecium): 40 µM (≈ 58 µg/mL)
- MIC [7]: 2.5 µM (≈ 3.62 µg/mL)
- Activity (Cell membrane [8]): inactive
- inhibition at 100 µM (Staphylococcus aureus [9]): 25%
- inhibition at 100 µM (Staphylococcus aureus [10]): 50%
- MIC (Staphylococcus aureus [11]): 1.25 µM (≈ 1.81 µg/mL)
- Activity (Staphylococcus aureus [12]): 72%

Structure (SMILES): O=C(O)c1cn(C2CC2)c2cc(N3CCNCC3)c(F)cc2c1=O [CIPROFLOXACIN]
- MIC (Enterococcus faecalis [1]): 2.5 µM (≈ 0.828 µg/mL)
- MIC [4]: 1.25 µM (≈ 0.414 µg/mL)
- MIC (Enterococcus faecalis [5]): 2.5 µM (≈ 0.828 µg/mL)
- MIC (Staphylococcus aureus [6]): 2.5 µM (≈ 0.828 µg/mL)
- MIC (Enterococcus faecium): 40 µM (≈ 13.3 µg/mL)
- MIC [7]: 0.625 µM (≈ 0.207 µg/mL)
- Ratio (Staphylococcus aureus [13]): 80
- Ratio (Staphylococcus aureus [14]): 170

Structure (SMILES): O=C(O)CC1CCc2c1[nH]c1ccc(OCc3cnc(C4CCCC4)c(C(F)(F)F)c3)cc21 (stereo not drawn)
- Activity (Staphylococcus aureus [15]): 50%
- MIC (Staphylococcus aureus [3]): 20 µM and 9.2 µg/mL
- inhibition at 40 µM (Staphylococcus aureus [16]): ≤ 90%
- inhibition at 100 µM (Staphylococcus aureus [9]): > 90%
- inhibition at 100 µM (Staphylococcus aureus [10]): > 90%

Structure (SMILES): CC[C@H](C)[C@H](NC(=O)CN)C(=O)NCC(=O)N[C@@H](C)C(=O)N[C@H](C(=O)N[C@@H](CC(C)C)C(=O)N[C@@H](CCCCN)C(=O)N[C@H](C(=O)N[C@@H](CC(C)C)C(=O)N[C@H](C(=O)N[C@H](C(=O)NCC(=O)N[C@@H](CC(C)C)C(=O)N1CCC[C@H]1C(=O)N[C@@H](C)C(=O)N[C@@H](CC(C)C)C(=O)N[C@H](C(=O)N[C@@H](CO)C(=O)N[C@@H](Cc1c[nH]c2ccccc12)C(=O)N[C@H](C(=O)N[C@@H](CCCCN)C(=O)N[C@@H](CCCNC(=N)N)C(=O)N[C@@H](CCCCN)C(=O)N[C@@H](CCCNC(=N)N)C(=O)N[C@@H](CCC(N)=O)C(=O)N[C@@H](CCC(N)=O)C(N)=O)[C@@H](C)CC)[C@@H](C)CC)[C@@H](C)O)[C@@H](C)O)C(C)C)C(C)C
- Activity (Cell membrane [17]): Active

Structure (SMILES): O=C(O)Cc1c[nH]c2ccc(OCc3ccc(C4CCCCC4)c(C(F)(F)F)c3)cc12
- MIC (Pseudomonas aeruginosa): > 200 µM
- MIC (Enterococcus faecalis [1]): 20 µM (≈ 8.63 µg/mL)
- MIC (Staphylococcus aureus [3]): 10 µM and 4.3 µg/mL
- MIC [4]: 10 µM (≈ 4.31 µg/mL)
- MIC (Acinetobacter baumannii): > 200 µM
- inhibition at 40 µM (Staphylococcus aureus [16]): ≤ 90%
- MIC (Enterococcus faecalis [5]): 20 µM (≈ 8.63 µg/mL)
- MIC (Staphylococcus aureus [6]): 10 µM (≈ 4.31 µg/mL)
- MIC (Enterococcus faecium): 20 µM (≈ 8.63 µg/mL)
- MIC [7]: 10 µM (≈ 4.31 µg/mL)
- inhibition at 100 µM (Staphylococcus aureus [9]): > 90%
- inhibition at 100 µM (Staphylococcus aureus [10]): > 90%
- MIC (Staphylococcus aureus [11]): 10 µM (≈ 4.31 µg/mL)

Structure (SMILES): O=C(O)C[C@H]1CCc2c1[nH]c1ccc(OCc3ccc(C4CCCC4)c(C(F)(F)F)c3)cc21 [ETRASIMOD]
- MIC (Pseudomonas aeruginosa): > 200 µM
- MIC (Enterococcus faecalis [1]): 10 µM (≈ 4.57 µg/mL)
- pKa [18]: 4
- Activity (Staphylococcus aureus [2]): 77%
- MIC (Staphylococcus aureus [3]): 5 µM and 2.3 µg/mL
- MIC [4]: 5 µM (≈ 2.29 µg/mL)
- MIC (Acinetobacter baumannii): > 200 µM
- Activity (Erythrocyte): Non-Toxic
- MIC (Enterococcus faecalis [5]): 5 µM (≈ 2.29 µg/mL)
- hemolysis at 1 h, 250 µM [19]: 100%
- MIC (Staphylococcus aureus [6]): 5 µM (≈ 2.29 µg/mL)
- MIC (Enterococcus faecium): 5 µM (≈ 2.29 µg/mL)
- MIC [7]: 10 µM (≈ 4.57 µg/mL)
- Activity (THP-1): 64%
- inhibition at 100 µM (Staphylococcus aureus [9]): 20%
- CC50 at 24 h [20]: 57.7 µM
- inhibition at 100 µM (Staphylococcus aureus [10]): 80%
- Activity [21]: Non-Toxic
- MIC (Staphylococcus aureus [11]): 5 µM (≈ 2.29 µg/mL)
- hemolysis at 1 h, 125 µM [22]: 7%
- Activity (Cell membrane [23]): inactive
- Activity (Staphylococcus aureus [12]): >85%

Structure (SMILES): O=C(O)CC1CCc2c1[nH]c1ccc(OCc3ccc(C4CCCCC4)c(OC(F)(F)F)c3)cc21 (stereo not drawn)
- MIC (Pseudomonas aeruginosa): > 200 µM
- MIC (Enterococcus faecalis [1]): 5 µM (≈ 2.44 µg/mL)
- MIC (Staphylococcus aureus [3]): 5 µM and 2.4 µg/mL
- MIC [4]: 10 µM (≈ 4.88 µg/mL)
- MIC (Acinetobacter baumannii): > 200 µM
- inhibition at 40 µM (Staphylococcus aureus [16]): ≤ 90%
- MIC (Enterococcus faecalis [5]): 5 µM (≈ 2.44 µg/mL)
- MIC (Staphylococcus aureus [6]): 5 µM (≈ 2.44 µg/mL)
- MIC (Enterococcus faecium): 5 µM (≈ 2.44 µg/mL)
- MIC [7]: 10 µM (≈ 4.88 µg/mL)
- inhibition at 100 µM (Staphylococcus aureus [9]): > 90%
- inhibition at 100 µM (Staphylococcus aureus [10]): > 90%
- MIC (Staphylococcus aureus [11]): 5 µM (≈ 2.44 µg/mL)

Structure (SMILES): CS(=O)(=O)NC(=O)CC1CCc2c1[nH]c1ccc(OCc3ccc(C4CCCC4)c(C(F)(F)F)c3)cc21 (stereo not drawn)
- MIC (Pseudomonas aeruginosa): > 200 µM
- MIC (Enterococcus faecalis [1]): 5 µM (≈ 2.67 µg/mL)
- MIC (Staphylococcus aureus [3]): 5 µM and 2.7 µg/mL
- MIC [4]: 10 µM (≈ 5.35 µg/mL)
- MIC (Acinetobacter baumannii): > 200 µM
- inhibition at 40 µM (Staphylococcus aureus [16]): ≤ 90%
- MIC (Enterococcus faecalis [5]): 5 µM (≈ 2.67 µg/mL)
- MIC (Staphylococcus aureus [6]): 5 µM (≈ 2.67 µg/mL)
- MIC (Enterococcus faecium): 10 µM (≈ 5.35 µg/mL)
- MIC [7]: 10 µM (≈ 5.35 µg/mL)
- inhibition at 100 µM (Staphylococcus aureus [9]): > 90%
- inhibition at 100 µM (Staphylococcus aureus [10]): > 90%
- MIC (Staphylococcus aureus [11]): 5 µM (≈ 2.67 µg/mL)
